According to patent US20230265068A1, “TRANSIENT RECEPTOR POTENTIAL CANONICAL 3 INHIBITORS AND METHODS OF USE THEREOF” (University of Tennessee Research Foundation, priority 2020, published 2023):

What was measured:
rTRPV1 = target: T1, rTRPV1 (Rattus norvegicus, UniProt O35433); experiment: whole-cell patch clamp selectivity, HEK 293 cells overexpressing rTRPV1; format: cell-based; conditions: HEK293, with agonist, solutions without Ca2+, read-out: % of the current of rTRPV1 inhibited
T1 construct: expressed in transfected cells; host or cells: HEK293, transient transfection, pMO vector
T1 sequence (O35433 whole entry): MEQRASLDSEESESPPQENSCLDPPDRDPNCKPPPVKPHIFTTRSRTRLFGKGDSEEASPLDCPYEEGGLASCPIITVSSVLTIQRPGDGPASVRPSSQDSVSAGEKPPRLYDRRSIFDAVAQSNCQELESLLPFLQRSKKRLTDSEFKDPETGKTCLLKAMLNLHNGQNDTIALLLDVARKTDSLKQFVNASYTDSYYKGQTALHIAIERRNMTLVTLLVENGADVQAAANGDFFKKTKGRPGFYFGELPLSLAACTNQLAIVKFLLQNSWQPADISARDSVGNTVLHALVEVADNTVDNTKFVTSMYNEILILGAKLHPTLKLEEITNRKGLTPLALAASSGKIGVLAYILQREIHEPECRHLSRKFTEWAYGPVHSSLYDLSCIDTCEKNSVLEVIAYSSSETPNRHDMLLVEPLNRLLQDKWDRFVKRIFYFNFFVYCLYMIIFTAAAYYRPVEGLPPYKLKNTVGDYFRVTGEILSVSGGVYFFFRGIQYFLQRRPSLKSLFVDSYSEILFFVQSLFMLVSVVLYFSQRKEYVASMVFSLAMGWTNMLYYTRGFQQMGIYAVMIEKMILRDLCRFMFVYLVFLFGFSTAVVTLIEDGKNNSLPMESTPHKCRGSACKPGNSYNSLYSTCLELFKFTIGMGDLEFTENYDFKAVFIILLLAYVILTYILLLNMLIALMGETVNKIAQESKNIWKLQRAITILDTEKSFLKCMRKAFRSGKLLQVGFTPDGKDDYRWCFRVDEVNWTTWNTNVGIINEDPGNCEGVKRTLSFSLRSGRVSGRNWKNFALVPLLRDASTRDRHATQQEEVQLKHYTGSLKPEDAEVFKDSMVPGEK
Method: (§1) Human embryonic kidney 293 (HEK293; catalog number CRL-1573) cells were cultured in Dulbecco's modified Eagle's medium (Invitrogen) supplemented with 10% fetal bovine serum and 1% penicillin-streptomycin at 37° C. and 5% CO2. Constructs cloned in pMO (a pcDNA3-modified vector) were co-transfected with GFP-pMO, using Lipofectamine 2000 (Invitrogen) according to the manufacturer's instructions. Macroscopic currents in the whole-cell patch clamp configuration were recorded 18-24 h post-transfection. The extracellular solution contained 140 mM NaCl, 6 mM KCl, 2 mM MgCl2, 10 mM HEPES, and 10 mM glucose (pH 7.4). Pipettes were made of borosilicate glass (outer diameter, 1.5 mm; inner diameter, 1.10 mm; Sutter Instruments) and fire-polished with a resistance between 2.8 and 4.0 megaohms when filled with an intracellular solution that contained 140 mM CsCl, 5 mM EGTA, and 10 mM HEPES, pH 7.2. Currents were recorded with a Multiclamp 700B amplifier (Molecular Devices) using a 1-s ramp from −100 to 100 mV. […] Data were acquired with a sampling rate of 20 kHz, low-pass filtered (10 kHz), and analyzed offline using Clampfit v10.4.2.0 (Molecular Devices). […]

mmTRPC6 = target: T2, mmTRPC6 (Mus musculus, UniProt Q61143); experiment: whole-cell patch clamp selectivity, HEK 293 cells overexpressing mmTRPC6; format: cell-based; conditions: HEK293, with agonist, solutions without Ca2+, read-out: % of the current of hTRPC6 inhibited
T2 construct: expressed in transfected cells; host or cells: HEK293, transient transfection, pMO vector
T2 sequence (Q61143 1-930): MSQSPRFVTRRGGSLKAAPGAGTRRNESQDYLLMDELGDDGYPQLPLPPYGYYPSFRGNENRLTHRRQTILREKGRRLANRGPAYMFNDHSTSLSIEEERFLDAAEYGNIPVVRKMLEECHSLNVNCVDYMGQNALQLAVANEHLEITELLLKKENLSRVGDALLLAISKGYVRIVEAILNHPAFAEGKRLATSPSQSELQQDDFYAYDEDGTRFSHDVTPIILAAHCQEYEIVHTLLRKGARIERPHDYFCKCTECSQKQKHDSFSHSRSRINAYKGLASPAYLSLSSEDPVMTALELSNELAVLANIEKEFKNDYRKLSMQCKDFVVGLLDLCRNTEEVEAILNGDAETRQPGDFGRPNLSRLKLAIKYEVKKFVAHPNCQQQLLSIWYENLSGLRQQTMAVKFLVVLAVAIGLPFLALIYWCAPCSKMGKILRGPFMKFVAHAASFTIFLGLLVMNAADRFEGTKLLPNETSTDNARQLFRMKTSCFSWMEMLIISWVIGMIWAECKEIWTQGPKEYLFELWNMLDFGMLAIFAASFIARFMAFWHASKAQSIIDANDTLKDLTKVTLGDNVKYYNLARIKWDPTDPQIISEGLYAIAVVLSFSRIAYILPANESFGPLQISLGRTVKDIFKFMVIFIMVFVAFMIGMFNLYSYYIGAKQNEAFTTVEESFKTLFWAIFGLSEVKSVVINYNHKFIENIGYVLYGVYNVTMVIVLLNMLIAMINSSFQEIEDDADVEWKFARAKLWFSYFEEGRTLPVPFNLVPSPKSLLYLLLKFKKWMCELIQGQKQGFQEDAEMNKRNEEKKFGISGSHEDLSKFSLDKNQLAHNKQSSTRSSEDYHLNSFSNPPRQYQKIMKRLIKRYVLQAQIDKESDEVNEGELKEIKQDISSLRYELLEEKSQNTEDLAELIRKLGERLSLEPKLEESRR
Method: as §1

[1] = brain permeability and half-life after systemic administration in C57BL/6 mice; format: in vivo
Method: The brain permeability of compound 22 was evaluated with systemic administration (20 mg/kg, i.v.) in C57BL/6 mice. Blood samples were collected at nine time points after compound administration: 5 min, 15 min, 30 min, 1 hr, 2 hr, 4 hr, 8 hr, 16 hr, and 24 hr. Brain homogenates were then extracted and analyzed for concentrations of compound 22 by liquid chromatography-mass spectrometry (LC-MS). The half-life (T½) in the brain was calculated by GraphPad Prism software.

**Q.** For `CCNC(=O)c1cnn(-c2ccc(-n3ccc(Cl)c(Cl)c3=O)cc2)c1C(F)(F)F` [Compound 22], which inhibition at 10 µM (rTRPV1) is on record?
**A.** < 5%

**Q.** And the inhibition at 10 µM (mmTRPC6)?
**A.** ~39%

**Q.** What about the Kp at 1 h ([1]; C57BL/6, mouse, brain/plasma, iv, 20 mg/kg, i.v., 1 h after injection, read-out: brain-to-plasma ratio) of the same compound?
**A.** ~0.15

**Q.** And the half-life ([1]; C57BL/6, mouse, plasma, iv, 20 mg/kg, i.v., read-out: plasma T½ (converted))?
**A.** ~4 h

**Q.** What about the “duration of brain concentration above TRPC3 IC50” value ([1]; one-dose injection) of the same compound?
**A.** 18 to 20 h
